Laboratory results published in patent publication US20170027902A1, “Use of a Composition Comprising a Flavonol, A Flavonoid, and a Fatty Acid in the Treatment of Oxidative Injuries Due to Mitochondrial Dysfunction” (priority 2014, published 2017).

What was measured:
[1] = system: primary cultures of mouse cortical neurons; assay: Mitochondrial respiration (Seahorse XF24, oxygen consumption rate); assay type: cell-based; details: 0.1 μM, FCCP 2 μM
Protocol: The effects of E, Q and E+Q on key parameters of mitochondrial respiration in primary cultures of mouse cortical neurons were measured using a Seahorse Bioscience XF24 Extracellular Flux Analyzer XF24 instrument. Oxygen consumption rate (OCR) in fmol/cell were normalized by counting viable cortical neurons at the end of each experiment. A seeding density of 80,000 neurons/well was sufficient to obtain a measurable basal OCR (4-6 fmol/min/cell) permitting both OCR induction and inhibition to be assessed. Mitochondrial function in cortical neurons was measured by the sequential injection of oligomycin (2 μM), FCCP (2 μM), rotenone (300 nM) and antimycin (5 μM) to control and OGD-exposed cultures treated with various concentrations of E, Q or E+Q (0.1 μM).

cortical neurons = assay: OGD, viable neurons counted by FACS (Annexin V / 7AAD); assay type: cell-based, mouse; details: 0.03 and 0.1 μg/ml (0.1 and 0.3 μM); 24 hrs pretreatment; 90 min OGD (vehicle approximately 45%)
Protocol: Embryonic day 16 timed pregnant CD1 out-bred mice were obtained from Charles River Laboratories (Charles River; QC, Canada). Primary cortical neuron cultures were prepared from cerebral cortices of wild type (WT) CD1 mouse embryos as described previously, with the following modifications. Pregnant CD1 females were heavily anaesthetized with isoflurane vapor (Benson Medical Industries, Inc., Markham, ON) before being euthanized by decapitation. The embryonic day 16 (E16) fetuses were immediately removed from the sacrificed pregnant females by cesarean section and placed in ice-cold Hank's Balanced Salt Solution (HBSS) (GIBCO; Invitrogen, Amarillo, Calif.). The meninges were removed from the brains and cortices were isolated under a dissecting microscope. […] The trypsin and inhibitor solutions were discarded and each cell pellet was suspended in 1 ml of cortical neuron plating medium (Neurobasal medium (Invitrogen, Amarillo, Calif.) with 10% fetal bovine serum (GIBCO; Invitrogen; Amarillo, Calif.), 2% B27 supplement, 1 mM L-glutamine, and 1% Gentamycin (Invitrogen; Amarillo, Calif.), triturated 10 times and counted using trypan blue exclusion and a hemocytometer. Cortical neurons were plated in 96-well plates (Corning; Lowell, Mass.) that were pre-coated with poly-D-lysine (PDL; Sigma-Aldrich; Oakville, ON) according to the procedure described by the manufacturer. […]

[2] = system: primary cultures of mouse cortical neurons; assay: Toxicity of high concentrations to cortical neuron cultures; assay type: cell-based; details: concentrations of 10 μg/ml or above

**Q.** Which “loss of spare respiratory capacity (SRC) after OGD” value [1] does the source give for `Oc1cc(O)c2c(c1)O[C@H](c1ccc(O)c(O)c1)[C@H](O)C2` [E, (2R,3R)-2-(3,4-dihydroxyphenyl)-3,4-dihydro-2H-chromene-3,5,7-triol] here?
**A.** only partially reversed

**Q.** What about the “neuronal survival (viable neurons relative to control, no OGD)” value (cortical neurons) of the same compound?
**A.** 55%

**Q.** What about the “toxicity to primary cultures of mouse cortical neurons” value [2] of the same compound?
**A.** increasingly toxic

**Q.** How did the “loss of spare respiratory capacity (SRC) after OGD” value [1] turn out when `O=c1c(O)c(-c2ccc(O)c(O)c2)oc2cc(O)cc(O)c12` [Q] was run?
**A.** only partially reversed

**Q.** What about the “neuronal survival (viable neurons relative to control, no OGD)” value (cortical neurons) of the same compound?
**A.** 55%

**Q.** And the “toxicity to primary cultures of mouse cortical neurons” value [2]?
**A.** increasingly toxic
